Source: PubChem BioAssay AID330 (DTP/NCI, 2004)
Several values for one entry are separate records, joined by “and”; a condition that tells them apart may be missing. Equal entries are not always repeated. Inconclusive results and toxic doses are left out. How the source made its calls: active means survival T/C of 150% or more; inactive means T/C below 125% in these data.

Test system: P388 leukemia ip, CD2F1 mice, survival T/C
Test: NCI In Vivo Anticancer Drug Screen. Data for tumor model P388 Leukemia (intraperitoneal) in CD2F1 (CDF1) mice
Conditions: endpoint: median survival time, higher = longer survival
Outline: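 Mice carrying the transplanted tumor received test compound or vehicle. Survival was recorded in each group, and the value is the treated-group measurement divided by that of the vehicle-treated control group.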

[1] = dose: 50.0 mg/kg/injection, schedule: Q04DX003 (ip), vehicle: saline
[2] = dose: 100.0 mg/kg/injection, schedule: Q04DX003 (ip), vehicle: saline
[3] = dose: 25.0 mg/kg/injection, schedule: Q01DX005 (ip), vehicle: saline with Tween-80
[4] = dose: 50.0 mg/kg/injection, schedule: Q01DX005 (ip), vehicle: saline with Tween-80
[5] = dose: 60.0 mg/kg/injection, schedule: Q01DX005 (ip), vehicle: saline with Tween-80
[6] = dose: 120.0 mg/kg/injection, schedule: Q01DX005 (ip), vehicle: saline with Tween-80
[7] = dose: 100.0 mg/kg/injection, schedule: Q01DX005 (ip), vehicle: saline with Tween-80
[8] = dose: 50.0 mg/kg/injection, schedule: Q01DX009 (ip), vehicle: Klucel (hydroxypropylcellulose) (HPC)
[9] = dose: 100.0 mg/kg/injection, schedule: Q01DX009 (ip), vehicle: Klucel (hydroxypropylcellulose) (HPC)
[10] = dose: 200.0 mg/kg/injection, schedule: Q01DX009 (ip), vehicle: Klucel (hydroxypropylcellulose) (HPC)
[11] = dose: 50.0 mg/kg/injection, schedule: Q01DX009 (ip), vehicle: saline with Tween-80
[12] = dose: 100.0 mg/kg/injection, schedule: Q01DX009 (ip), vehicle: saline with Tween-80
[13] = dose: 200.0 mg/kg/injection, schedule: Q01DX009 (ip), vehicle: saline with Tween-80

Measured: T/C

NCCC[Se]CC(N)C(=O)O (centres undefined)
inactive: dose: 12.5 mg/kg/injection, schedule: Q01DX005 (ip), vehicle: saline 100 % of control | dose: 25.0 mg/kg/injection, schedule: Q01DX005 (ip), vehicle: saline 102 % of control | dose: 25.0 mg/kg/injection, schedule: Q04DX003 (ip), vehicle: saline 95 % of control | dose: 50.0 mg/kg/injection, schedule: Q01DX005 (ip), vehicle: saline 104 % of control | [1] 111 % of control | dose: 100.0 mg/kg/injection, schedule: Q01DX005 (ip), vehicle: saline 102 % of control | [2] 110 % of control and 119 % of control

C=C1C(=O)C[C@H]2[C@H]3CC[C@H](C(=O)O)[C@]12CC3(C)C
inactive: dose: 7.5 mg/kg/injection, schedule: Q01DX005 (ip), vehicle: Klucel (hydroxypropylcellulose) (HPC) 119 % of control | dose: 15.0 mg/kg/injection, schedule: Q01DX005 (ip), vehicle: Klucel (hydroxypropylcellulose) (HPC) 113 % of control | dose: 30.0 mg/kg/injection, schedule: Q01DX005 (ip), vehicle: Klucel (hydroxypropylcellulose) (HPC) 119 % of control | dose: 31.5 mg/kg/injection, schedule: Q01DX005 (ip), vehicle: Klucel (hydroxypropylcellulose) (HPC) 111 % of control

CCCOc1cc2c(cc1C(C)c1ccc(OCC)cc1)OCO2 (centres undefined)
inactive: dose: 12.5 mg/kg/injection, schedule: Q01DX005 (ip), vehicle: saline with Tween-80 100 % of control | [3] 110 % of control | [4] 115 % of control | [5] 105 % of control | [6] 113 % of control

N#CC1(C#N)C2CCCCC21 (centres undefined)
inactive: dose: 3.75 mg/kg/injection, schedule: Q01DX005 (ip), vehicle: saline with Tween-80 107 % of control | dose: 7.5 mg/kg/injection, schedule: Q01DX005 (ip), vehicle: saline with Tween-80 100 % of control | dose: 15.0 mg/kg/injection, schedule: Q01DX005 (ip), vehicle: saline with Tween-80 96 % of control

CC(C)N1CCN(c2ccncc2S(=O)(=O)N2CCN(C)CC2)CC1
inactive: dose: 50.0 mg/kg/injection, schedule: Q01DX009 (ip), vehicle: saline 106 % of control | dose: 100.0 mg/kg/injection, schedule: Q01DX009 (ip), vehicle: saline 90 % of control | dose: 200.0 mg/kg/injection, schedule: Q01DX009 (ip), vehicle: saline 99 % of control

Cc1cc(O)c2c(c1O)C(=O)c1cc(O)cc(O)c1C2=O
inactive: dose: 6.25 mg/kg/injection, schedule: Q01DX005 (ip), vehicle: saline + alcohol 104 % of control | dose: 12.5 mg/kg/injection, schedule: Q01DX005 (ip), vehicle: saline + alcohol 101 % of control | dose: 25.0 mg/kg/injection, schedule: Q01DX005 (ip), vehicle: saline + alcohol 99 % of control

CC1(C)CCCC(C)(C(=O)O)O1 (centres undefined)
inactive: [5] 104 % of control | [6] 101 % of control | dose: 240.0 mg/kg/injection, schedule: Q01DX005 (ip), vehicle: saline with Tween-80 104 % of control

NCC(=O)c1ccc2ccccc2c1
inactive: dose: 60.0 mg/kg/injection, schedule: Q01DX005 (ip), vehicle: Klucel (hydroxypropylcellulose) (HPC) 105 % of control | dose: 120.0 mg/kg/injection, schedule: Q01DX005 (ip), vehicle: Klucel (hydroxypropylcellulose) (HPC) 106 % of control

CN(C)Nc1ncnc2c1ncn2C
inactive: [4] 103 % of control | [7] 100 % of control | dose: 200.0 mg/kg/injection, schedule: Q01DX005 (ip), vehicle: saline with Tween-80 97 % of control

O=C1Cc2ccccc2N1C(=O)c1ccc(Br)cc1
inactive: dose: 100.0 mg/kg/injection, schedule: Q01DX001 (ip), vehicle: Klucel (hydroxypropylcellulose) (HPC) 94 % of control | dose: 200.0 mg/kg/injection, schedule: Q01DX001 (ip), vehicle: Klucel (hydroxypropylcellulose) (HPC) 90 % of control

O=C1C=CC2(CC=CCC2)CC1 (centres undefined)
inactive: dose: 6.25 mg/kg/injection, schedule: Q01DX009 (ip), vehicle: Klucel (hydroxypropylcellulose) (HPC) 110 % of control | dose: 12.5 mg/kg/injection, schedule: Q01DX008 (ip), vehicle: Klucel (hydroxypropylcellulose) (HPC) 101 % of control | dose: 12.5 mg/kg/injection, schedule: Q01DX009 (ip), vehicle: Klucel (hydroxypropylcellulose) (HPC) 108 % of control | dose: 25.0 mg/kg/injection, schedule: Q01DX008 (ip), vehicle: Klucel (hydroxypropylcellulose) (HPC) 100 % of control | dose: 25.0 mg/kg/injection, schedule: Q01DX009 (ip), vehicle: Klucel (hydroxypropylcellulose) (HPC) 100 % of control | [8] 121 % of control | [9] 109 % of control | [10] 110 % of control

CS(=O)(=O)OCCOc1ccc(-c2nc3ccccc3[nH]2)cc1
inactive: dose: 100.0 mg/kg/injection, schedule: Q01DX001 (ip), vehicle: saline with Tween-80 90 % of control | dose: 200.0 mg/kg/injection, schedule: Q01DX001 (ip), vehicle: saline with Tween-80 98 % of control | dose: 400.0 mg/kg/injection, schedule: Q01DX001 (ip), vehicle: saline with Tween-80 99 % of control

CCCCCCCCCCCCCCCCCC(=O)O.[Co]
inactive: [11] 87 % of control and 95 % of control and 97 % of control | [12] 100 % of control and 103 % of control and 97 % of control | [13] 92 % of control

CC1CC[N-]C(CCC2CC(C)CC[N-]2)C1.CC1CC[N-]C(CCC2CC(C)CC[N-]2)C1.[Ni+2].[O-][Cl+3]([O-])([O-])O (centres undefined)
inactive: dose: 25.0 mg/kg/injection, schedule: Q01DX001 (ip), vehicle: saline 99 % of control | dose: 50.0 mg/kg/injection, schedule: Q01DX001 (ip), vehicle: saline 93 % of control | dose: 100.0 mg/kg/injection, schedule: Q01DX001 (ip), vehicle: saline 108 % of control and 96 % of control

C/C=C1\CN2CCc3c([nH]c4ccccc34)C2CC1C1=CN2c3ccccc3C34CCN5CC6=CCOC1C(C6CC53)C24 (centres undefined)
inactive: dose: 2.38 mg/kg/injection, schedule: Q01DX005 (ip), vehicle: Klucel (hydroxypropylcellulose) (HPC) 95 % of control | dose: 4.75 mg/kg/injection, schedule: Q01DX005 (ip), vehicle: Klucel (hydroxypropylcellulose) (HPC) 97 % of control | dose: 9.5 mg/kg/injection, schedule: Q01DX005 (ip), vehicle: Klucel (hydroxypropylcellulose) (HPC) 88 % of control

CC([OH2+])CNCCN.CC([OH2+])CNCCN.O=[N+]([O-])[O-].[Ni+2] (centres undefined)
inactive: dose: 3.13 mg/kg/injection, schedule: Q01DX009 (ip), vehicle: saline 87 % of control | dose: 6.25 mg/kg/injection, schedule: Q01DX009 (ip), vehicle: saline 88 % of control | dose: 12.5 mg/kg/injection, schedule: Q01DX009 (ip), vehicle: saline 102 % of control and 87 % of control

CCN(C(=O)CCl)C(C)(C)C(SSSC(c1ccc(Cl)cc1)C(C)(C)N(CC)C(=O)CCl)c1ccc(Cl)cc1 (centres undefined)
inactive: [1] 104 % of control | [2] 113 % of control | dose: 200.0 mg/kg/injection, schedule: Q04DX003 (ip), vehicle: saline 109 % of control

CC1(CCl)Nc2ccccc2C(=O)N1c1ccccc1 (centres undefined)
inactive: [11] 99 % of control | [12] 97 % of control | [13] 88 % of control

Cc1ccc(NC(=O)NCCCN2CCOCC2)cc1NC(=O)NCCCN1CCOCC1
inactive: [8] 104 % of control | [9] 100 % of control | [10] 96 % of control

c1ccc(OCCC[P+](c2ccccc2)(c2ccccc2)c2ccccc2)cc1
inactive: dose: 0.7 mg/kg/injection, schedule: Q01DX010 (ip), vehicle: carboxymethylcellulose (CMC) 120 % of control | dose: 1.5 mg/kg/injection, schedule: Q01DX010 (ip), vehicle: carboxymethylcellulose (CMC) 110 % of control | dose: 3.0 mg/kg/injection, schedule: Q01DX010 (ip), vehicle: carboxymethylcellulose (CMC) 120 % of control | dose: 4.1 mg/kg/injection, schedule: Q01DX009 (ip), vehicle: saline sonified 113 % of control | dose: 6.25 mg/kg/injection, schedule: Q01DX009 (ip), vehicle: saline sonified 118 % of control

COc1ccc(C2=Nn3c(nc(N)nc3=N)SC2)cc1
inactive: [3] 113 % of control | [4] 100 % of control | [7] 96 % of control

CCOC(=O)c1nn(C)c2oc(=O)ccc12
inactive: dose: 25.0 mg/kg/injection, schedule: Q01DX005 (ip), vehicle: Klucel (hydroxypropylcellulose) (HPC) 106 % of control | dose: 50.0 mg/kg/injection, schedule: Q01DX005 (ip), vehicle: Klucel (hydroxypropylcellulose) (HPC) 108 % of control | dose: 100.0 mg/kg/injection, schedule: Q01DX005 (ip), vehicle: Klucel (hydroxypropylcellulose) (HPC) 104 % of control | dose: 200.0 mg/kg/injection, schedule: Q01DX005 (ip), vehicle: Klucel (hydroxypropylcellulose) (HPC) 104 % of control
